This assay has as its system progressive mCRPC patients. Kind of assay: Response to AR targeted therapy by baseline CTC AR expression (Epic CTC), Example 1. Format: in vivo, human. The note with it: pooled AA+P or E patients; for patients with high AR who responded: high baseline AR expression on CTCs, N = 7; for patients with low AR who had a PSA decline and stable radiographic disease: low baseline AR expression on CTCs, N = 14, median follow-up 12 wks. The source says:
48 samples from 21 unique progressive mCRPC patients treated with androgen receptor targeted (AR tx) therapies, 9 (43%) on Abiraterone plus Prednisone (AA+P) and 12 (57%) on Enzalutamide (E). Samples were collected and shipped to Epic Sciences, where cells were stained and CTC identified by fluorescent scanners and algorithmic analysis. CTCs, defined as classic (CK+CD45-w/intact DAPI nuclei and distinct), apopotic (CK+, CD45−, non-intact nuclei) and CK− (CK−, CD45-, intact and distinct) were identified. CTCs reported per mL of blood and were examined for AR, PTEN & ERG. CTC data were analyzed in context of PSA, Veridex CTC (reported per 7.5mL of blood), and clinical history.

Take Abiraterone plus Prednisone: the “patients with high AR who responded” value was found to be 0%; the “patients with low AR who had a PSA decline and stable radiographic disease” value was determined as 53%.

As for `CNC(=O)c1ccc(N2C(=S)N(c3ccc(C#N)c(C(F)(F)F)c3)C(=O)C2(C)C)cc1F` [Enzalutamide], the “patients with high AR who responded” value was found to be 0%; the “patients with low AR who had a PSA decline and stable radiographic disease” value turned out to be 53%.

These data come from patent US20240319193A1, “CIRCULATING TUMOR CELL DIAGNOSTICS FOR BIOMARKERS PREDICTIVE OF RESISTANCE TO ANDROGEN RECEPTOR (AR) TARGETED THERAPIES” (Epic Sciences, Inc., priority 2014, published 2024).
